Test results taken from US12630547B2, “RAS protein degraders, pharmaceutical compositions thereof, and their therapeutic applications” (BioTheryX, Inc., priority 2019, dated 2026).
Each block holds one compound with its values, some of them ahead of it.

Tests used:
Format in all cases: cell-based
MOLM-13 cells = test: Cell viability assay (CELLTITER-GLO), MOLM-13 cells; details: Table 2, compound at 10 μM, 3 days; for viability at 10 µM: Homo sapiens, MOLM-13, 72 h, read-out: Effect on MOLM-13 cell viability (% DMSO)
In short: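 MV-4-11 and MOLM-13 cells in RPMI 1640/10% FBS were seeded at 4,000 cells/well and exposed to compound (10 μM or 1 μM) or DMSO for 3 days at 37 °C, 5% CO2. CellTiter-Glo luminescence gave viability as % DMSO, binned into ranges A (<10%) through D (≥50%).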

H358 cells = test: Cell viability assay (CELLTITER-GLO), H358 cells; details: Table 4; 3 days
In short: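 H358 cells (RPMI 1640, 10% FBS), 4,000 per well, exposed to compound for 3 days at 37 °C, 5% CO2; viability by CellTiter-Glo luminescence. Single-dose viability as % DMSO at 10 or 1 μM, binned A (<10%) to D (≥50%); IC50 binned A (≤1 μM) to D (>10 μM).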

H23 cells = test: Cell viability assay (CELLTITER-GLO), H23 cells; details: Table 4; 3 days
In short: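 H23 cells in RPMI 1640 with 10% FBS, 4,000 cells/well, exposed to compound or DMSO for 3 days at 37° C, 5% CO2. Viability read by CellTiter-Glo luminescence after 10 min. IC50 reported in potency bins.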

SMILES: C=C(Cl)C(=O)N1CCN(c2ncnc3c(F)c(-c4c(F)cccc4OCCCCCCCCCN4CCC(c5cc(F)cc6c5CN(C5CCC(=O)NC5=O)C6=O)CC4)c(Cl)cc23)CC1 (stereo not drawn) [Compound 113, 3-(4-(1-(9-(2-(6-Chloro-4-(4-(2-chloroacryloyl)piperazin-1-yl)-8-fluoroquinazolin-7-yl)-3-fluorophenoxy)nonyl)piperidin-4-yl)-6-fluoro-1-oxoisoindolin-2-yl)piperidine-2,6-dione]
viability at 10 µM (MOLM-13 cells): < 10%
Inhibition of H358 cells, IC50 (class) (H358 cells): B′
Inhibition of H23 cells, IC50 (class) (H23 cells): B′

SMILES: C=C(Cl)C(=O)N1CCN(c2ncnc3c(F)c(-c4c(F)cccc4OCCCCCCCCCCCN4CCC(c5cc(F)cc6c5CN(C5CCC(=O)NC5=O)C6=O)CC4)c(Cl)cc23)CC1 (stereo not drawn) [Compound 114, 3-(4-(1-(11-(2-(6-Chloro-4-(4-(2-chloroacryloyl)piperazin-1-yl)-8-fluoroquinazolin-7-yl)-3-fluorophenoxy)undecyl)piperidin-4-yl)-6-fluoro-1-oxoisoindolin-2-yl)piperidine-2,6-dione]
viability at 10 µM (MOLM-13 cells): < 10%
Inhibition of H358 cells, IC50 (class) (H358 cells): B′
Inhibition of H23 cells, IC50 (class) (H23 cells): B′

SMILES: C=C(Cl)C(=O)N1CCN(c2nc(OCCN(C)C)nc3c(F)c(-c4c(F)cccc4OCCCCCCCN4CCC(c5cc(F)cc6c5CN(C5CCC(=O)NC5=O)C6=O)CC4)c(Cl)cc23)CC1 (stereo not drawn) [Compound 115, 3-(4-(1-(7-(2-(6-Chloro-4-(4-(2-chloroacryloyl)piperazin-1-yl)-2-(2-(dimethylamino)-ethoxy)-8-fluoroquinazolin-7-yl)-3-fluorophenoxy)heptyl)piperidin-4-yl)-6-fluoro-1-oxoisoindolin-2-yl)piperidine-2,6-dione]
viability at 10 µM (MOLM-13 cells): < 10%
Inhibition of H358 cells, IC50 (class) (H358 cells): B′
Inhibition of H23 cells, IC50 (class) (H23 cells): A′

SMILES: C=C(Cl)C(=O)N1CCN(c2ncnc3c(F)c(-c4c(F)cccc4OCCC4CCC(CCN5CCC(c6cc(F)cc7c6CN(C6CCC(=O)NC6=O)C7=O)CC5)CC4)c(Cl)cc23)CC1 (stereo not drawn) [Compound 116, 3-(4-(1-(2-(4-(2-(2-(6-Chloro-4-(4-(2-chloroacryloyl)piperazin-1-yl)-8-fluoroquinazolin-7-yl)-3-fluorophenoxy)ethyl)cyclohexyl)ethyl)piperidin-4-yl)-6-fluoro-1-oxoisoindolin-2-yl)piperidine-2,6-dione]
Effect on MOLM-13 cell viability (% DMSO) (MOLM-13 cells): A (“A” represents a % viability value of less than 10%)
Inhibition of H358 cells, IC50 (class) (H358 cells): A′
Inhibition of H23 cells, IC50 (class) (H23 cells): A′

SMILES: C=C(Cl)C(=O)N1CCN(c2ncnc3c(F)c(-c4c(F)cccc4OC[C@H]4CC[C@H](CN5CCC(c6cc(F)cc7c6CN(C6CCC(=O)NC6=O)C7=O)CC5)CC4)c(Cl)cc23)CC1 (stereo partly drawn) [Compound 117, 3-(4-(1-(((1r,4r)-4-((2-(6-Chloro-4-(4-(2-chloroacryloyl)piperazin-1-yl)-8-fluoro-quinazolin-7-yl)-3-fluorophenoxy)methyl)cyclohexyl)methyl)piperidin-4-yl)-6-fluoro-1-oxoisoindolin-2-yl)piperidine-2,6-dione]
viability at 10 µM (MOLM-13 cells): < 10%
Inhibition of H358 cells, IC50 (class) (H358 cells): A′
Inhibition of H23 cells, IC50 (class) (H23 cells): A′

SMILES: C=C(Cl)C(=O)N1CCN(c2ncnc3c(F)c(-c4c(F)cccc4OCCC4CCC(CN5CCC(c6cc(F)cc7c6CN(C6CCC(=O)NC6=O)C7=O)CC5)CC4)c(Cl)cc23)CC1 (stereo not drawn) [Compound 118, 3-(4-(1-((4-(2-(2-(6-Chloro-4-(4-(2-chloroacryloyl)piperazin-1-yl)-8-fluoroquinazolin-7-yl)-3-fluorophenoxy)ethyl)cyclohexyl)methyl)piperidin-4-yl)-6-fluoro-1-oxoisoindolin-2-yl)piperidine-2,6-dione]
viability at 10 µM (MOLM-13 cells): < 10%
Inhibition of H358 cells, IC50 (class) (H358 cells): A′
Inhibition of H23 cells, IC50 (class) (H23 cells): A′

SMILES: C=C(Cl)C(=O)N1CCN(c2ncnc3c(F)c(-c4c(F)cccc4OCCCCCCCN4CCCC(c5cc6c(cc5F)C(=O)N(C5CCC(=O)NC5=O)C6)C4)c(Cl)cc23)CC1 (stereo not drawn) [Compound 119, 3-(5-(1-(7-(2-(6-Chloro-4-(4-(2-chloroacryloyl)piperazin-1-yl)-8-fluoroquinazolin-7-yl)-3-fluorophenoxy)heptyl)piperidin-3-yl)-6-fluoro-1-oxoisoindolin-2-yl)piperidine-2,6-dione]
viability at 10 µM (MOLM-13 cells): < 10%
Inhibition of H358 cells, IC50 (class) (H358 cells): B′
Inhibition of H23 cells, IC50 (class) (H23 cells): A′

Now from value to compound, other results behind:

Inhibition of H358 cells, IC50 (class) (H358 cells): B′
SMILES: C=C(Cl)C(=O)N1CCN(c2ncnc3c(F)c(-c4c(F)cccc4OCCN4CCC(CCN5CCC(c6cc(F)cc7c6CN(C6CCC(=O)NC6=O)C7=O)CC5)CC4)c(Cl)cc23)CC1 (stereo not drawn) [Compound 120, 3-(4-(1-(2-(1-(2-(2-(6-Chloro-4-(4-(2-chloroacryloyl)piperazin-1-yl)-8-fluoroquinazolin-7-yl)-3-fluorophenoxy)ethyl)piperidin-4-yl)ethyl)piperidin-4-yl)-6-fluoro-1-oxoisoindolin-2-yl)piperidine-2,6-dione]
viability at 10 µM (MOLM-13 cells): < 10%
Inhibition of H23 cells, IC50 (class) (H23 cells): B′

Inhibition of H358 cells, IC50 (class) (H358 cells): B′
SMILES: C=C(Cl)C(=O)N1CCN(c2ncnc3c(F)c(-c4c(F)cccc4OCCCN4CCC(c5cc(F)cc6c5CN(C5CCC(=O)NC5=O)C6=O)CC4)c(Cl)cc23)CC1 (stereo not drawn) [Compound 121, 3-(4-(1-(3-(2-(6-Chloro-4-(4-(2-chloroacryloyl)piperazin-1-yl)-8-fluoroquinazolin-7-yl)-3-fluorophenoxy)propyl)piperidin-4-yl)-6-fluoro-1-oxoisoindolin-2-yl)piperidine-2,6-dione]
viability at 10 µM (MOLM-13 cells): < 10%
Inhibition of H23 cells, IC50 (class) (H23 cells): B′

Inhibition of H358 cells, IC50 (class) (H358 cells): A′
SMILES: C=C(Cl)C(=O)N1CCN(c2nc(=O)n(-c3c(C)ccnc3C(C)C)c3nc(-c4c(F)cccc4OCCCCCCCN4CCC(c5cc(F)cc6c5CN(C5CCC(=O)NC5=O)C6=O)CC4)c(F)cc23)[C@@H](C)C1 (stereo partly drawn) [Compound 122, 3-(4-(1-(7-(2-(4-((S)-4-(2-Chloroacryloyl)-2-methylpiperazin-1-yl)-6-fluoro-1-(2-isopropyl-4-methylpyridin-3-yl)-2-oxo-1,2-dihydropyrido[2,3-d]pyrimidin-7-yl)-3-fluorophenoxy)heptyl)piperidin-4-yl)-6-fluoro-1-oxoisoindolin-2-yl)piperidine-2,6-dione]
viability at 10 µM (MOLM-13 cells): < 10%
Inhibition of H23 cells, IC50 (class) (H23 cells): A′

Inhibition of H358 cells, IC50 (class) (H358 cells): A′
SMILES: C=C(Cl)C(=O)N1CCN(c2ncnc3c(F)c(-c4c(F)cccc4OCCCCCCCN4CCC(c5cc6c(cc5F)C(=O)N(C5CCC(=O)NC5=O)C6)CC4)c(Cl)cc23)C[C@H]1CC#N (stereo partly drawn) [Compound 123, 2-((2R)-4-(6-Chloro-7-(2-((7-(4-(2-(2,6-dioxopiperidin-3-yl)-6-fluoro-1-oxoisoindolin-5-yl)piperidin-1-yl)heptyl)oxy)-6-fluorophenyl)-8-fluoroquinazolin-4-yl)-1-(2-chloroacryloyl)-piperazin-2-yl)acetonitrile]
viability at 10 µM (MOLM-13 cells): < 10%
Inhibition of H23 cells, IC50 (class) (H23 cells): A′

Inhibition of H358 cells, IC50 (class) (H358 cells): A′
SMILES: C=CC(=O)N1CCN(c2nc(=O)n(-c3c(C)ccnc3C(C)C)c3nc(-c4c(F)cccc4OCCCCCCCN4CCC(c5cc(F)cc6c5CN(C5CCC(=O)NC5=O)C6=O)CC4)c(F)cc23)[C@@H](C)C1 (stereo partly drawn) [Compound 124, 3-(4-(1-(7-(2-(4-((S)-4-Acryloyl-2-methylpiperazin-1-yl)-6-fluoro-1-(2-isopropyl-4-methylpyridin-3-yl)-2-oxo-1,2-dihydropyrido[2,3-d]pyrimidin-7-yl)-3-fluorophenoxy)heptyl)-piperidin-4-yl)-6-fluoro-1-oxoisoindolin-2-yl)piperidine-2,6-dione]
viability at 10 µM (MOLM-13 cells): < 10%
Inhibition of H23 cells, IC50 (class) (H23 cells): B′

Inhibition of H358 cells, IC50 (class) (H358 cells): B′
SMILES: C=C(Cl)C(=O)N1C[C@@H]2C(=O)N(CCCCCCCN3CCC(c4cc(F)cc5c4CN(C4CCC(=O)NC4=O)C5=O)CC3)c3cnc4c(F)c(-c5c(O)cccc5F)c(Cl)cc4c3N2C[C@H]1C (stereo partly drawn) [Compound 125, 3-(4-(1-(7-((2R,4aR)-11-Chloro-3-(2-chloroacryloyl)-9-fluoro-10-(2-fluoro-6-hydroxyphenyl)-2-methyl-5-oxo-1,2,3,4,4a,5-hexahydro-6H-pyrazino[1′,2′:4,5]pyrazino[2,3-c]quinolin-6-yl)heptyl)piperidin-4-yl)-6-fluoro-1-oxoisoindolin-2-yl)piperidine-2,6-dione]
viability at 10 µM (MOLM-13 cells): < 10%
Inhibition of H23 cells, IC50 (class) (H23 cells): B′

Inhibition of H358 cells, IC50 (class) (H358 cells): B′
SMILES: C=C(Cl)C(=O)N1CCN(c2nc(=O)n(-c3ccc(CCCCCCCN4CCC(c5cc(F)cc6c5CN(C5CCC(=O)NC5=O)C6=O)CC4)cc3C(C)C)c3nc(-c4c(O)cccc4F)c(F)cc23)[C@@H](C)C1 (stereo partly drawn) [Compound 126, 3-(4-(1-(7-(4-(4-((S)-4-(2-Chloroacryloyl)-2-methylpiperazin-1-yl)-6-fluoro-7-(2-fluoro-6-hydroxyphenyl)-2-oxopyrido[2,3-d]pyrimidin-1(2H)-yl)-3-isopropylphenyl)heptyl)piperidin-4-yl)-6-fluoro-1-oxoisoindolin-2-yl)piperidine-2,6-dione]
viability at 10 µM (MOLM-13 cells): < 10%
Inhibition of H23 cells, IC50 (class) (H23 cells): B′
